Organism: Rattus norvegicus
Test: DrugMatrix - Regimen: Daily Repeat
Type: toxicity, organism-based, Sprague-Dawley
Parameters: regimen Daily Repeat, gender Male, age 6-8 weeks
Details: in vivo, po, route oral GAVAGE, vehicle 100 % WATER; for ABSOLUTE BASOPHIL / ABSOLUTE EOSINOPHIL / ABSOLUTE LYMPHOCYTE / ABSOLUTE MONOCYTE / ABSOLUTE SEGMENTED NEUTROPHIL / BASOPHIL / EOSINOPHIL / ERYTHROCYTE COUNT / HEMATOCRIT / HEMOGLOBIN / LEUKOCYTE COUNT / LYMPHOCYTE / MEAN CORPUSCULAR HEMOGLOBIN / MEAN CORPUSCULAR HEMOGLOBIN CONCENTRATION / MEAN CORPUSCULAR VOLUME / MONOCYTE / NEUTROPHIL / NUCLEATED RED BLOOD CELLS / PLATELET COUNT: tissue Blood; for ALANINE AMINOTRANSFERASE / ALBUMIN / ALKALINE PHOSPHATASE / ASPARTATE AMINOTRANSFERASE / BLOOD UREA NITROGEN / CARBON DIOXIDE / CHLORIDE / CHOLESTEROL / CREATINE PHOSPHOKINASE / CREATININE / GLUCOSE / LACTATE DEHYDROGENASE / LIPASE / PHOSPHORUS / POTASSIUM / SODIUM / TOTAL BILIRUBIN / TOTAL PROTEIN / URIC ACID: tissue Plasma
[1] = 0 mg/kg, 72 h, dose level Control, time 3 day
[2] = 0 mg/kg, 120 h, dose level Control, time 5 day
[3] = 33 mg/kg, 72 h, dose level Low, time 3 day
[4] = 33 mg/kg, 120 h, dose level Low, time 5 day

For `C1CCN2C[C@@H]3C[C@@H](CN4CCCC[C@@H]34)[C@H]2C1` [SPARTEINE], the “ABSOLUTE BASOPHIL” value [1] was 0 CELLS/uL, the “ABSOLUTE EOSINOPHIL” value [1] was 86.33 CELLS/uL and the “ABSOLUTE LYMPHOCYTE” value [1] was 12090.17 CELLS/uL. The “ABSOLUTE MONOCYTE” value [1] was 166.67 CELLS/uL, the “ABSOLUTE SEGMENTED NEUTROPHIL” value [1] was 1090.17 CELLS/uL and the BASOPHIL [1] was 0%. The EOSINOPHIL [1] was 0.67%, the “ERYTHROCYTE COUNT” value [1] was 5.57 x10E6/uL and the HEMATOCRIT [1] was 35.33%. For the same molecule, the HEMOGLOBIN [1] was 13.83 G/DL, the “LEUKOCYTE COUNT” value [1] was 13.43 x10E3/uL and the LYMPHOCYTE [1] was 89.83%. For the same molecule, the “MEAN CORPUSCULAR HEMOGLOBIN” value [1] was 24.88 pg, the “MEAN CORPUSCULAR HEMOGLOBIN CONCENTRATION” value [1] was 39.15 G/DL and the “MEAN CORPUSCULAR VOLUME” value [1] was 63.52 fL. The MONOCYTE [1] was 1.17%, the NEUTROPHIL [1] was 8.33% and the “NUCLEATED RED BLOOD CELLS” value [1] was 0 /100WBC. The “PLATELET COUNT” value [1] was 1181.33 x10E3/uL, the “ALANINE AMINOTRANSFERASE” value [1] was 48.33 u/L and the ALBUMIN [1] was 4.1 G/DL. The “ALKALINE PHOSPHATASE” value [1] was 395 u/L, the “ASPARTATE AMINOTRANSFERASE” value [1] was 81.83 u/L and the “BLOOD UREA NITROGEN” value [1] was 15.83 mg/dL. The “CARBON DIOXIDE” value [1] was 24.17 mmol/L, the CHLORIDE [1] was 103.83 MEQ/L and the CHOLESTEROL [1] was 63.67 mg/dL. For the same molecule, the “CREATINE PHOSPHOKINASE” value [1] was 372.83 u/L, the CREATININE [1] was 0.18 mg/dL and the GLUCOSE [1] was 173.83 mg/dL. For the same molecule, the “LACTATE DEHYDROGENASE” value [1] was 188.33 u/L, the LIPASE [1] was 9.5 u/L and the PHOSPHORUS [1] was 11.95 mg/dL. The POTASSIUM [1] was 5.99 MEQ/L, the SODIUM [1] was 144.43 MEQ/L and the “TOTAL BILIRUBIN” value [1] was 0.15 mg/dL. For the same molecule, the “TOTAL PROTEIN” value [1] was 5.95 G/DL, the “URIC ACID” value [1] was 1.82 mg/dL and the “ABSOLUTE BASOPHIL” value [2] was 0 CELLS/uL. The “ABSOLUTE EOSINOPHIL” value [2] was 26.67 CELLS/uL, the “ABSOLUTE LYMPHOCYTE” value [2] was 7583.83 CELLS/uL and the “ABSOLUTE MONOCYTE” value [2] was 131.33 CELLS/uL. The “ABSOLUTE SEGMENTED NEUTROPHIL” value [2] was 674.83 CELLS/uL, the BASOPHIL [2] was 0% and the EOSINOPHIL [2] was 0.33%. For the same molecule, the “ERYTHROCYTE COUNT” value [2] was 5.78 x10E6/uL, the HEMATOCRIT [2] was 36.48% and the HEMOGLOBIN [2] was 14.03 G/DL. The “LEUKOCYTE COUNT” value [2] was 8.42 x10E3/uL, the LYMPHOCYTE [2] was 89.83% and the “MEAN CORPUSCULAR HEMOGLOBIN” value [2] was 24.3 pg. The “MEAN CORPUSCULAR HEMOGLOBIN CONCENTRATION” value [2] was 38.52 G/DL, the “MEAN CORPUSCULAR VOLUME” value [2] was 63.15 fL and the MONOCYTE [2] was 1.67%. The NEUTROPHIL [2] was 8.17%, the “NUCLEATED RED BLOOD CELLS” value [2] was 0 /100WBC and the “PLATELET COUNT” value [2] was 1186.67 x10E3/uL. The “ALANINE AMINOTRANSFERASE” value [2] was 50.17 u/L, the ALBUMIN [2] was 4.07 G/DL and the “ALKALINE PHOSPHATASE” value [2] was 367.5 u/L. For the same molecule, the “ASPARTATE AMINOTRANSFERASE” value [2] was 81.67 u/L, the “BLOOD UREA NITROGEN” value [2] was 16.17 mg/dL and the “CARBON DIOXIDE” value [2] was 32.33 mmol/L. For the same molecule, the CHLORIDE [2] was 101.5 MEQ/L, the CHOLESTEROL [2] was 65.33 mg/dL and the “CREATINE PHOSPHOKINASE” value [2] was 255.33 u/L. For the same molecule, the CREATININE [2] was 0.17 mg/dL, the GLUCOSE [2] was 139.33 mg/dL and the “LACTATE DEHYDROGENASE” value [2] was 95 u/L. For the same molecule, the LIPASE [2] was 10.5 u/L, the PHOSPHORUS [2] was 10.38 mg/dL and the POTASSIUM [2] was 6.11 MEQ/L. The SODIUM [2] was 145.55 MEQ/L, the “TOTAL BILIRUBIN” value [2] was 0.17 mg/dL and the “TOTAL PROTEIN” value [2] was 5.98 G/DL. For the same molecule, the “URIC ACID” value [2] was 0.93 mg/dL, the “ABSOLUTE BASOPHIL” value [3] was 0 CELLS/uL and the “ABSOLUTE EOSINOPHIL” value [3] was 58.33 CELLS/uL. For the same molecule, the “ABSOLUTE LYMPHOCYTE” value [3] was 13527.67 CELLS/uL, the “ABSOLUTE MONOCYTE” value [3] was 237.33 CELLS/uL and the “ABSOLUTE SEGMENTED NEUTROPHIL” value [3] was 1176.67 CELLS/uL. The BASOPHIL [3] was 0%, the EOSINOPHIL [3] was 0.33% and the “ERYTHROCYTE COUNT” value [3] was 5.67 x10E6/uL. The HEMATOCRIT [3] was 36.13%, the HEMOGLOBIN [3] was 14 G/DL and the “LEUKOCYTE COUNT” value [3] was 15 x10E3/uL. For the same molecule, the LYMPHOCYTE [3] was 90%, the “MEAN CORPUSCULAR HEMOGLOBIN” value [3] was 24.8 pg and the “MEAN CORPUSCULAR HEMOGLOBIN CONCENTRATION” value [3] was 38.83 G/DL. The “MEAN CORPUSCULAR VOLUME” value [3] was 63.9 fL, the MONOCYTE [3] was 1.67% and the NEUTROPHIL [3] was 8%. For the same molecule, the “NUCLEATED RED BLOOD CELLS” value [3] was 0.33 /100WBC, the “PLATELET COUNT” value [3] was 1335 x10E3/uL and the “ALANINE AMINOTRANSFERASE” value [3] was 50.67 u/L. The ALBUMIN [3] was 3.9 G/DL, the “ALKALINE PHOSPHATASE” value [3] was 377.67 u/L and the “ASPARTATE AMINOTRANSFERASE” value [3] was 91 u/L. For the same molecule, the “BLOOD UREA NITROGEN” value [3] was 15 mg/dL, the “CARBON DIOXIDE” value [3] was 25.67 mmol/L and the CHLORIDE [3] was 102 MEQ/L. The CHOLESTEROL [3] was 61.33 mg/dL, the “CREATINE PHOSPHOKINASE” value [3] was 251.67 u/L and the CREATININE [3] was 0.12 mg/dL. For the same molecule, the GLUCOSE [3] was 152 mg/dL, the “LACTATE DEHYDROGENASE” value [3] was 249 u/L and the LIPASE [3] was 9 u/L. For the same molecule, the PHOSPHORUS [3] was 13.2 mg/dL, the POTASSIUM [3] was 6.44 MEQ/L and the SODIUM [3] was 143.4 MEQ/L. The “TOTAL BILIRUBIN” value [3] was 0.13 mg/dL, the “TOTAL PROTEIN” value [3] was 5.73 G/DL and the “URIC ACID” value [3] was 1.43 mg/dL. The “ABSOLUTE BASOPHIL” value [4] was 0 CELLS/uL, the “ABSOLUTE EOSINOPHIL” value [4] was 62 CELLS/uL and the “ABSOLUTE LYMPHOCYTE” value [4] was 7311 CELLS/uL. The “ABSOLUTE MONOCYTE” value [4] was 83 CELLS/uL, the “ABSOLUTE SEGMENTED NEUTROPHIL” value [4] was 677.33 CELLS/uL and the BASOPHIL [4] was 0%. For the same molecule, the EOSINOPHIL [4] was 0.67%, the “ERYTHROCYTE COUNT” value [4] was 5.58 x10E6/uL and the HEMATOCRIT [4] was 34.4%. For the same molecule, the HEMOGLOBIN [4] was 13.3 G/DL, the “LEUKOCYTE COUNT” value [4] was 8.13 x10E3/uL and the LYMPHOCYTE [4] was 90.33%. The “MEAN CORPUSCULAR HEMOGLOBIN” value [4] was 23.87 pg, the “MEAN CORPUSCULAR HEMOGLOBIN CONCENTRATION” value [4] was 38.67 G/DL and the “MEAN CORPUSCULAR VOLUME” value [4] was 61.8 fL. For the same molecule, the MONOCYTE [4] was 1%, the NEUTROPHIL [4] was 8% and the “NUCLEATED RED BLOOD CELLS” value [4] was 0 /100WBC. The “PLATELET COUNT” value [4] was 1046.67 x10E3/uL, the “ALANINE AMINOTRANSFERASE” value [4] was 55.33 u/L and the ALBUMIN [4] was 3.93 G/DL. For the same molecule, the “ALKALINE PHOSPHATASE” value [4] was 372 u/L, the “ASPARTATE AMINOTRANSFERASE” value [4] was 82.67 u/L and the “BLOOD UREA NITROGEN” value [4] was 16.33 mg/dL. The “CARBON DIOXIDE” value [4] was 31.67 mmol/L, the CHLORIDE [4] was 102.33 MEQ/L and the CHOLESTEROL [4] was 65.33 mg/dL. The “CREATINE PHOSPHOKINASE” value [4] was 351.67 u/L, the CREATININE [4] was 0.16 mg/dL and the GLUCOSE [4] was 143.67 mg/dL. For the same molecule, the “LACTATE DEHYDROGENASE” value [4] was 104.67 u/L, the LIPASE [4] was 10 u/L and the PHOSPHORUS [4] was 10.67 mg/dL. For the same molecule, the POTASSIUM [4] was 5.96 MEQ/L, the SODIUM [4] was 145.73 MEQ/L and the “TOTAL BILIRUBIN” value [4] was 0.13 mg/dL. For the same molecule, the “TOTAL PROTEIN” value [4] was 5.97 G/DL and the “URIC ACID” value [4] was 0.63 mg/dL.
